The experiment has as its system CEM cells HIV-1 protection, formazan growth assay. The experiment is described as follows: NCI AIDS Antiviral Assay. The following applies: for IC50: measured here: growth of uninfected CEM cells. Summed up:
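Human CEM cells, uninfected and HIV-1-infected, received five drug concentrations, and growth was read by soluble formazan assay. Compounds giving at least 50% protection were retested; reproducible 100% protection defined confirmed active.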

Active and inactive are the calls of the source.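 Rule for the calls: active = compounds giving half or more protection of infected cells from virus-caused growth loss, again on retest; inactive = the rest.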

A word on the EC50: it is the concentration needed to bring the measured effect to its halfway point. Usually IC50 stands for the midpoint of a concentration-inhibition curve. Low readings indicate greater potency in that assay, high ones weaker potency in that assay.

As for `O=C1OC(=O)C2C1C(c1ccccc1[N+](=O)[O-])C=C(c1ccco1)N2c1ccncc1` (stereo unspecified), the EC50 was > 20 µM and the half-inhibitory concentration (IC50) worked out at 2.51 µM.
The corresponding values for `CC1(C)CC(Br)(Cc2ccccc2)C(=O)c2ccccc21` (stereo unspecified) are > 200 µM and 7.94 µM.
For the molecule `CC(Oc1ccc2c(-c3ccc(Cl)cc3)cc(=O)oc2c1)C(=O)O` (stereo unspecified), the outcome was inactive.
On to `NCCN.O=C([O-])CC(O)C(=O)[O-].[Pt+4]` (stereo unspecified), for which the EC50 is > 200 µM and the IC50 turned out to be 12 µM.
The corresponding values for `N=c1c2sc3nc4ccccc4n3c2ncn1Cc1ccccc1` are > 100 µM and > 100 µM.
For `CCOC(=O)/C(=C\c1ccc([N+](=O)[O-])cc1)C(C)=O`, in that order: > 257 µM and 64.6 µM.
For `C=C1C2CCC3(C4C[C@H]5C6(CCC[C@@]5(C)[C@H]5OCCN5[C@H]6O4)[C@@H]3C2)C1OC(C)=O` (stereo partly specified), in that order: > 12.9 µM and > 12.9 µM.
Consider `CCCCc1cc(=O)oc2c3c(c4c(c12)OC(C)(C)CC4)O[C@@H](C)[C@H](C)[C@@H]3O`, for which the EC50 was 2.69 µM and the IC50 came out at 10.5 µM.
For `CC1=NN(c2ccccc2)C(=O)C1N=Nc1ccc(S(=O)(=O)Nc2nnc(C)s2)cc1` (stereo unspecified), the outcome was inactive.
As to `C[N+]1(C)CCC(OC(=O)C(O)(c2ccccc2)C2CCCC2)C1` (stereo unspecified), the EC50 was > 200 µM and the IC50 was > 200 µM.
Take `CCOC(=O)c1ccccc1NC(=O)CN(CC)CC`: the EC50 is > 200 µM and the 50% inhibitory concentration (IC50) was > 200 µM.
In the case of `COc1cc(OC)c2c(c1)OC1OC(=O)CC21` (stereo unspecified), the EC50 was > 209 µM and the IC50 was > 209 µM.
In the case of `c1nc2nc3c(cn2n1)CCCC3`, the result was inactive.
For `NC(=O)C(=CN1CC(=O)NC1=S)C(N)=O`, the EC50 was > 200 µM and the IC50 was > 200 µM.
With `C=C1CN(S(=O)(=O)c2ccc(C)cc2)CCCN(CC2CC2)CCCN(S(=O)(=O)c2ccc(C)cc2)C1`, the EC50 is > 200 µM and the IC50 worked out at 4.27 µM.
For `CCOC(=O)N1Cc2ccoc2C1`, in that order: > 75.9 µM and > 75.9 µM.
The corresponding values for `O=c1cc(-c2ccc(O)cc2)oc2cc(O)cc(O)c12` are > 55 µM and 20.4 µM.
Consider `O=C1C=CC=CC2CC=C[C@@H](O)C12` (stereo partly specified), for which the EC50 is > 251 µM and the IC50 is 12 µM.
For `COc1ccccc1-n1cnc2c1NC(C)(C)N=C2C(N)=O`, in that order: > 200 µM and > 200 µM.
With `CC1(C)CC(=O)C2=C(C1)NC(SSC1=C(C#N)C(c3ccc(F)cc3)C3=C(CC(C)(C)CC3=O)N1)=C(C#N)C2c1ccc(F)cc1` (stereo unspecified), the EC50 was 19.1 µM and the IC50 is 39.8 µM.
`CNC(=S)N/N=C1\CC(c2ccccc2)Oc2ccccc21` (stereo unspecified): the outcome was inactive.
Turning to `CC(C)(C)c1ccc(OCCOc2ccc(C(C)(C)C)cc2NC=O)c(NC=O)c1`, the EC50 was > 200 µM and the IC50 came out at 5.13 µM.
For `Oc1ccccc1C=Nc1ccc(Oc2ccc(Cl)cc2)c(Cl)c1`, in that order: > 200 µM and 13.2 µM.
For `C#CCNC(Cc1ccccc1)C(=O)O` (stereo unspecified), in that order: > 200 µM and > 200 µM.
For `CC(=S)NC1C(Oc2ccc3c(C)cc(=O)oc3c2)OC(CO)C(O)C1O` (stereo unspecified), in that order: > 200 µM and > 200 µM.
For the molecule `N#C/C(=C\c1cc(O)c(O)c(O)c1)C(=O)NCCCCNC(=O)/C(C#N)=C/c1cc(O)c(O)c(O)c1`, the EC50 is > 200 µM and the IC50 was 61.7 µM.
`CC(C)Oc1ccc(CNC2=NCCO2)c2ccccc12`: the EC50 was > 200 µM and the IC50 came to 17.8 µM.
As to `CN(C)C=Nc1c(Br)cc(Br)c2nonc12`, the EC50 is > 200 µM and the IC50 is > 200 µM.
Consider `CSc1ccc2nncc(SC)c2c1`, for which the EC50 was > 158 µM and the IC50 stood at 57.5 µM.
The corresponding values for `CC1=C(C(=O)Nc2ccccc2)C(c2ccc([N+](=O)[O-])cc2)C(C(=O)Nc2ccccc2)=C(C)N1` are > 15.5 µM and > 15.5 µM.
As for `CCNc1ccc2c(c1)C(=O)N(OS(C)(=O)=O)C2=O`, the result was inactive.
The same measure, in the same setting: the value for `COc1ccc(/C(C)=N/NC(N)=S)cc1OC` was “inactive”.
For the molecule `COc1cc2c(c3oc(=O)cc(C)c13)[C@@H](OC(=O)C13CCC(C)(C(=O)O1)C3(C)C)[C@@H](OC(=O)C13CCC(C)(C(=O)O1)C3(C)C)C(C)(C)O2` (stereo partly specified), the EC50 was 0.324 µM and the IC50 was > 200 µM.
Consider `CN(C)CC1C2C=CC(C3CC23)C1CN(C)C` (stereo unspecified), for which the result was inactive.
Turning to `COC(=O)C(CCc1ccccc1I)C1=CCC2(CC1)OCCO2` (stereo unspecified), the EC50 was > 200 µM and the IC50 turned out to be 38 µM.
The corresponding values for `O=[N+]([O-])c1ccc2c(c1)NP(=S)(Oc1ccccc1)N2` (stereo unspecified) are > 603 µM and 81.3 µM.
For `C=C1CN(S(=O)(=O)c2ccc(C)cc2)CCCN(CC(C)(C)C)CCCN(S(=O)(=O)c2ccc(C)cc2)C1`, in that order: > 200 µM and 10.5 µM.
As to `CC(=O)OC1CCN(C)CC1CCl` (stereo unspecified), the EC50 is > 200 µM and the 50% inhibitory concentration (IC50) was > 200 µM.
As to `O=C(O)c1ccc(CSc2ccccc2C(=O)O)cc1`, the EC50 was > 126 µM and the IC50 was > 126 µM.
As to `CCOC(=O)c1c(CN2CCNCC2)nc2ccc(Cl)cc2c1-c1ccccc1`, the EC50 was > 63.1 µM and the IC50 amounted to 33.9 µM.
In the case of `CC1(C)O[C@@H](CCl)C[C@H](C#N)O1`, the EC50 was > 200 µM and the IC50 is > 200 µM.
Consider `COC(=O)c1c(C)oc2ccc(OC(C)=O)cc12`, for which the result was inactive.
In the case of `C=C1C(=O)O[C@H]2C1C[C@H](O)[C@@]1(C)OC1CC[C@@]1(C)O[C@H]21` (stereo partly specified), the EC50 was > 200 µM and the IC50 amounted to 6.61 µM.
The corresponding values for `C(/C=C/Nc1ccc(Oc2ccccc2)cc1)=Nc1ccc(Oc2ccccc2)cc1` are > 200 µM and 9.33 µM.
With `CCOC(=O)/C(C#N)=C1\SS/C(=C(/C#N)C(=O)OCC)S1`, the EC50 was > 200 µM and the IC50 was determined as 19.5 µM.
The corresponding values for `CC(C)c1ccc(S(=O)(=O)c2ccc([N+](=O)[O-])cc2[N+](=O)[O-])cc1` are > 200 µM and 0.851 µM.
On to `CCCCN(CCCC)C(=O)C(=O)C(C#N)c1ccc(C)cc1` (stereo unspecified), for which the result was inactive.
Regarding `COc1ccc(CCN=C2OCc3ccccc32)cc1OC`, the EC50 was > 200 µM and the IC50 came out at 11.7 µM.
For `O=C1OC(CC(=O)c2ccccc2Cl)C(Cl)=C1Cl` (stereo unspecified), in that order: > 117 µM and 69.2 µM.
Consider `CN(C(=O)C1(C(=O)C=[N+]=[N-])CC1)c1ccccc1`, for which the EC50 is > 1020 µM and the half-inhibitory concentration (IC50) was > 1020 µM.
For the molecule `OC(c1ccccc1)c1c(-c2ccccc2)oc(-c2ccccc2)c1C(O)c1ccccc1` (stereo unspecified), the result was inactive.
On to `Cc1cc2c(cc1C)NC(=O)C(NC(=O)c1ccc(Cl)cc1)C=N2` (stereo unspecified), for which the EC50 was > 200 µM and the IC50 is > 200 µM.
Turning to `C1C[S+]2CC[S+]1CC2`, the EC50 is > 200 µM and the IC50 was > 200 µM.
With `NC(CCSCCSCCC(N)C(=O)O)C(=O)O` (stereo unspecified), the EC50 was > 3.39 µM and the IC50 was > 3.39 µM.
In the case of `Cc1nc(C)c(Cc2ccccc2)o1`, the EC50 is > 200 µM and the IC50 was > 200 µM.
With `O=C(C=P(c1ccccc1)(c1ccccc1)c1ccccc1)C12CC3CC(CC(C3)C1)C2`, the EC50 was > 100 µM and the IC50 was 6.61 µM.
`Cn1c(=O)nc2n(-c3ccc(F)cc3)c3ccccc3nc-2c1=O`: the outcome was inactive.
Take `O=C1/C(=C/c2ccc(O)cc2)CCc2ccccc21`: the EC50 was > 200 µM and the IC50 was found to be 20.9 µM.
The corresponding values for `CCCN(CCC)C(=S)S` are > 200 µM and > 200 µM.
`Cc1cn(CC(=O)NCCCCO)c(=O)[nH]c1=O`: the EC50 is > 200 µM and the IC50 is > 200 µM.
As for `CCCCCCCC/C=C/CCCCCCCC1CC(O)C(=O)O1` (stereo unspecified), the EC50 is > 200 µM and the IC50 was 191 µM.
The corresponding values for `S=C(Nc1ccc(Cl)c(Cl)c1)N1c2ccccc2-n2cccc2C1c1cccnc1` (stereo unspecified) are > 49 µM and 25.1 µM.
For the molecule `Cc1ccc(/C=c2\c(=O)[nH]c3nc4ccccc4c(=O)n23)cc1`, the EC50 is > 200 µM and the IC50 was 22.4 µM.
The corresponding values for `Cc1c(C)c2c(c(N)c1C#N)C(=O)N(NC(=O)c1ccccc1)C2=O` are > 200 µM and 186 µM.
The corresponding values for `CC(C)/C(Cl)=N/OC(=O)Nc1cccc(C(F)(F)F)c1` are > 20 µM and 3.02 µM.
Turning to `CC1=NN(c2ccccc2)C(=O)C1N=Nc1ccc(S(N)(=O)=O)cc1` (stereo unspecified), the outcome was inactive.
With `CSc1nc(Cl)c2c(n1)Sc1nc3ccccc3n1C2O` (stereo unspecified), the EC50 was > 200 µM and the IC50 was found to be 6.31 µM.
The corresponding values for `COc1ccc(C2C(C#N)=C(N)C(C#N)=C3Oc4ccccc4N32)cc1` (stereo unspecified) are > 200 µM and > 200 µM.
Turning to `COC1/C=C/OC2(C)Oc3c(C)c(O)c4c(O)c(c(/C=N/N5C(C)CN(Cc6ccc(NC(C)=O)cc6)CC5C)c(O)c4c3C2=O)NC(=O)C(C)=C/C=C/C(C)C(O)C(C)C(O)C(C)C(OC(C)=O)C1C` (stereo unspecified), the EC50 was > 200 µM and the IC50 was determined as 9.12 µM.
For `CC(C)C(=O)/C=C/c1ccc(Cl)c(Cl)c1`, in that order: > 200 µM and 11 µM.
The corresponding values for `CCCCCCCCCCCCCCCC(=O)OCC(COP(=O)(O)OCCNC(=O)CCSSc1ccccn1)OC(=O)CCCCCCCCCCCCCCC` (stereo unspecified) are > 50.1 µM and 37.2 µM.
Regarding `O=C(O)CN(CCN(CC(=O)O)CC(=O)O)CC(=O)O.[Cu+2].[Na+]`, the EC50 was > 200 µM and the IC50 was 8.91 µM.
For `COC(=O)C(/C(=N/N)C(=O)Nc1cc(Cl)ccc1Cl)c1nc2ccc([N+](=O)[O-])cc2[nH]c1=O` (stereo unspecified), in that order: > 138 µM and > 138 µM.
For `c1ccc([P+](Cc2csnn2)(c2ccccc2)c2ccccc2)cc1`, in that order: > 331 µM and 174 µM.

For the origin of these results see PubChem BioAssay AID179 (DTP/NCI, 2004).
